{
  "source": "ChEMBL document CHEMBL1201862",
  "about": "“PubChem BioAssay data set” (2004)",
  "experiment_in_all_cases": "NCI anticancer screen, dose series, 48 h",
  "key": {"[1]": {"test_system": "SF-295"}, "[2]": {"test_system": "COLO 205"}, "[3]": {"test_system": "SF-539"}, "[4]": {"test_system": "CCRF-CEM"}, "[5]": {"test_system": "IGROV-1"}, "[6]": {"test_system": "SN12C"}, "[7]": {"test_system": "OVCAR-5"}, "[8]": {"test_system": "OVCAR-8"}, "[9]": {"test_system": "SK-MEL-2"}, "[10]": {"test_system": "Malme-3M"}, "[11]": {"test_system": "NCI/ADR-RES"}, "[12]": {"test_system": "ACHN"}, "[13]": {"test_system": "NCI-H23"}, "[14]": {"test_system": "UACC-257"}, "[15]": {"test_system": "SK-OV-3"}, "[16]": {"test_system": "SF-268"}, "[17]": {"test_system": "HOP-62"}, "[18]": {"test_system": "DU-145"}, "[19]": {"test_system": "SW-620"}, "[20]": {"test_system": "MCF7"}, "[21]": {"test_system": "LOX IMVI"}, "[22]": {"test_system": "HL-60"}, "[23]": {"test_system": "CAKI-1"}, "[24]": {"test_system": "RPMI-8226"}, "[25]": {"test_system": "MDA-N"}, "[26]": {"test_system": "NCI-H226"}, "[27]": {"test_system": "TK-10"}, "[28]": {"test_system": "KM12"}, "[29]": {"test_system": "MDA-MB-435"}, "[30]": {"test_system": "RXF 393"}, "[31]": {"test_system": "MOLT-4"}, "[32]": {"test_system": "SR"}, "[33]": {"test_system": "M14"}, "[34]": {"test_system": "K562"}, "[35]": {"test_system": "NCI-H460"}, "[36]": {"test_system": "HCT-116"}, "[37]": {"test_system": "MDA-MB-231"}, "[38]": {"test_system": "HT-29"}, "[39]": {"test_system": "HCT-15"}, "[40]": {"test_system": "UACC-62"}, "[41]": {"test_system": "A498"}, "[42]": {"test_system": "SNB-75"}, "[43]": {"test_system": "OVCAR-3"}, "[44]": {"test_system": "U-251"}, "[45]": {"test_system": "SNB-19"}, "[46]": {"test_system": "SK-MEL-28"}, "[47]": {"test_system": "UO-31"}, "[48]": {"test_system": "EKVX"}, "[49]": {"test_system": "Hs-578T"}, "[50]": {"test_system": "786-0"}, "[51]": {"test_system": "SK-MEL-5"}, "[52]": {"test_system": "PC-3"}, "[53]": {"test_system": "BT-549"}, "[54]": {"test_system": "A549"}, "[55]": {"test_system": "HCC 2998"}, "[56]": {"test_system": "NCI-H522"}},
  "note": "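Interpolation was linear, between the two tested concentrations surrounding the appropriate level; five concentrations were tested over 48 hours in 96-well plates. Here, GI50 denotes the concentration required for 50% inhibition of growth.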 Calls of active or inactive are those of the source. No stated cut-off is given here; in the data, active = GI50 up to about 1.1 µM and inactive = higher.",
  "data": [
    {"smiles": "O=C(Cn1c(=O)oc2ccccc21)N(c1ccccc1)c1ccccc1", "values": [
      {"measurement": "GI50", "setting": "[1]", "value": "> 100 µM (inactive)"},
      {"measurement": "GI50", "setting": "[2]", "value": "> 100 µM (inactive)"},
      {"measurement": "GI50", "setting": "[3]", "value": "88.9 µM (inactive)"},
      {"measurement": "GI50", "setting": "[4]", "value": "> 100 µM (inactive)"},
      {"measurement": "GI50", "setting": "[5]", "value": "26.5 µM (inactive)"},
      {"measurement": "GI50", "setting": "[6]", "value": "> 100 µM (inactive)"},
      {"measurement": "GI50", "setting": "[7]", "value": "> 100 µM (inactive)"},
      {"measurement": "GI50", "setting": "[8]", "value": "52.8 µM (inactive)"},
      {"measurement": "GI50", "setting": "[9]", "value": "> 100 µM (inactive)"},
      {"measurement": "GI50", "setting": "[10]", "value": "3.39 µM (inactive)"},
      {"measurement": "GI50", "setting": "[11]", "value": "77.6 µM (inactive)"},
      {"measurement": "GI50", "setting": "[12]", "value": "> 100 µM (inactive)"},
      {"measurement": "GI50", "setting": "[13]", "value": "> 100 µM (inactive)"},
      {"measurement": "GI50", "setting": "[14]", "value": "> 100 µM (inactive)"},
      {"measurement": "GI50", "setting": "[15]", "value": "> 100 µM (inactive)"},
      {"measurement": "GI50", "setting": "[16]", "value": "67.5 µM (inactive)"},
      {"measurement": "GI50", "setting": "[17]", "value": "> 100 µM (inactive)"},
      {"measurement": "GI50", "setting": "[18]", "value": "> 100 µM (inactive)"},
      {"measurement": "GI50", "setting": "[19]", "value": "> 100 µM (inactive)"},
      {"measurement": "GI50", "setting": "[20]", "value": "> 100 µM (inactive)"},
      {"measurement": "GI50", "setting": "[21]", "value": "> 100 µM (inactive)"},
      {"measurement": "GI50", "setting": "[22]", "value": "> 100 µM (inactive)"},
      {"measurement": "GI50", "setting": "[23]", "value": "> 100 µM (inactive)"},
      {"measurement": "GI50", "setting": "[24]", "value": "> 100 µM (inactive)"},
      {"measurement": "GI50", "setting": "[25]", "value": "> 100 µM (inactive)"},
      {"measurement": "GI50", "setting": "[26]", "value": "15.2 µM (inactive)"},
      {"measurement": "GI50", "setting": "[27]", "value": "> 100 µM (inactive)"},
      {"measurement": "GI50", "setting": "[28]", "value": "> 100 µM (inactive)"},
      {"measurement": "GI50", "setting": "[29]", "value": "> 100 µM (inactive)"},
      {"measurement": "GI50", "setting": "[30]", "value": "> 100 µM (inactive)"},
      {"measurement": "GI50", "setting": "[31]", "value": "> 100 µM (inactive)"},
      {"measurement": "GI50", "setting": "[32]", "value": "> 100 µM (inactive)"},
      {"measurement": "GI50", "setting": "[33]", "value": "> 100 µM (inactive)"},
      {"measurement": "GI50", "setting": "[34]", "value": "> 100 µM (inactive)"},
      {"measurement": "GI50", "setting": "[35]", "value": "> 100 µM (inactive)"},
      {"measurement": "GI50", "setting": "[36]", "value": "> 100 µM (inactive)"},
      {"measurement": "GI50", "setting": "[37]", "value": "> 100 µM (inactive)"},
      {"measurement": "GI50", "setting": "[38]", "value": "> 100 µM (inactive)"},
      {"measurement": "GI50", "setting": "[39]", "value": "> 100", "unit": "µM"},
      {"measurement": "GI50", "setting": "[40]", "value": "> 100 µM (inactive)"},
      {"measurement": "GI50", "setting": "[41]", "value": "> 100 µM (inactive)"},
      {"measurement": "GI50", "setting": "[42]", "value": "11.5 µM (inactive)"},
      {"measurement": "GI50", "setting": "[43]", "value": "> 100 µM (inactive)"},
      {"measurement": "GI50", "setting": "[44]", "value": "95.1 µM (inactive)"},
      {"measurement": "GI50", "setting": "[45]", "value": "> 100 µM (inactive)"},
      {"measurement": "GI50", "setting": "[46]", "value": "> 100 µM (inactive)"},
      {"measurement": "GI50", "setting": "[47]", "value": "> 100 µM (inactive)"},
      {"measurement": "GI50", "setting": "[48]", "value": "11.9 µM (inactive)"},
      {"measurement": "GI50", "setting": "[49]", "value": "40.9 µM (inactive)"},
      {"measurement": "GI50", "setting": "[50]", "value": "> 100 µM (inactive)"},
      {"measurement": "GI50", "setting": "[51]", "value": "> 100 µM (inactive)"},
      {"measurement": "GI50", "setting": "[52]", "value": "> 100 µM (inactive)"},
      {"measurement": "GI50", "setting": "[53]", "value": "> 100 µM (inactive)"}
    ]},
    {"smiles": "C1=NN2C(c3ccccc3)=NOC2C2C(c3ccccc3)=NOC12", "note": "(stereo not given)", "values": [
      {"measurement": "GI50", "setting": "[1]", "value": "> 100 µM (inactive)"},
      {"measurement": "GI50", "setting": "[2]", "value": "> 100 µM (inactive)"},
      {"measurement": "GI50", "setting": "[3]", "value": "> 100 µM (inactive)"},
      {"measurement": "GI50", "setting": "[5]", "value": "> 100 µM (inactive)"},
      {"measurement": "GI50", "setting": "[7]", "value": "> 100 µM (inactive)"},
      {"measurement": "GI50", "setting": "[8]", "value": "> 100 µM (inactive)"},
      {"measurement": "GI50", "setting": "[10]", "value": "> 100 µM (inactive)"},
      {"measurement": "GI50", "setting": "[11]", "value": "97.9 µM (inactive)"},
      {"measurement": "GI50", "setting": "[12]", "value": "98.6 µM (inactive)"},
      {"measurement": "GI50", "setting": "[13]", "value": "> 100 µM (inactive)"},
      {"measurement": "GI50", "setting": "[14]", "value": "> 100 µM (inactive)"},
      {"measurement": "GI50", "setting": "[15]", "value": "> 100 µM (inactive)"},
      {"measurement": "GI50", "setting": "[16]", "value": "> 100 µM (inactive)"},
      {"measurement": "GI50", "setting": "[17]", "value": "> 100 µM (inactive)"},
      {"measurement": "GI50", "setting": "[18]", "value": "> 100 µM (inactive)"},
      {"measurement": "GI50", "setting": "[20]", "value": "> 100 µM (inactive)"},
      {"measurement": "GI50", "setting": "[21]", "value": "> 100 µM (inactive)"},
      {"measurement": "GI50", "setting": "[23]", "value": "> 100 µM (inactive)"},
      {"measurement": "GI50", "setting": "[25]", "value": "> 100 µM (inactive)"},
      {"measurement": "GI50", "setting": "[26]", "value": "96.2 µM (inactive)"},
      {"measurement": "GI50", "setting": "[27]", "value": "> 100 µM (inactive)"},
      {"measurement": "GI50", "setting": "[28]", "value": "> 100 µM (inactive)"},
      {"measurement": "GI50", "setting": "[30]", "value": "> 100 µM (inactive)"},
      {"measurement": "GI50", "setting": "[33]", "value": "> 100 µM (inactive)"},
      {"measurement": "GI50", "setting": "[35]", "value": "> 100 µM (inactive)"},
      {"measurement": "GI50", "setting": "[36]", "value": "> 100 µM (inactive)"},
      {"measurement": "GI50", "setting": "[37]", "value": "> 100 µM (inactive)"},
      {"measurement": "GI50", "setting": "[54]", "value": "> 100 µM (inactive)"},
      {"measurement": "GI50", "setting": "[55]", "value": "> 100 µM (inactive)"},
      {"measurement": "GI50", "setting": "[39]", "value": "> 100", "unit": "µM"},
      {"measurement": "GI50", "setting": "[40]", "value": "> 100 µM (inactive)"},
      {"measurement": "GI50", "setting": "[42]", "value": "> 100 µM (inactive)"},
      {"measurement": "GI50", "setting": "[43]", "value": "> 100 µM (inactive)"},
      {"measurement": "GI50", "setting": "[45]", "value": "> 100 µM (inactive)"},
      {"measurement": "GI50", "setting": "[56]", "value": "42.9 µM (inactive)"},
      {"measurement": "GI50", "setting": "[47]", "value": "> 100 µM (inactive)"},
      {"measurement": "GI50", "setting": "[48]", "value": "> 100 µM (inactive)"},
      {"measurement": "GI50", "setting": "[49]", "value": "> 100 µM (inactive)"},
      {"measurement": "GI50", "setting": "[50]", "value": "> 100 µM (inactive)"},
      {"measurement": "GI50", "setting": "[51]", "value": "58.7 µM (inactive)"},
      {"measurement": "GI50", "setting": "[52]", "value": "> 100 µM (inactive)"},
      {"measurement": "GI50", "setting": "[53]", "value": "> 100 µM (inactive)"}
    ]}
  ]
}
